These results are taken from patent publication US4277472A, “3,6-Disubstituted-5,7-(lower alkano)-5,6,7,8-tetrahydropyrido(4,3-C)pyridazines; their intermediates, preparation, antihypertensive use and compositions” (Byk Gulden Lomberg Chemische Fabrik GmbH, priority 1978, dated 1981).

Series [1] has as its system blood pressure of genetically-hypertensive rats. Kind of series: antihypertensive effect in awake genetically-hypertensive rats, oral, once daily on two consecutive days. Format: in vivo, rat (Kyoto strain). To be noted: for relation between percentage change of the blood pressure (BP) and the applied dose / Th. E. (therapeutic effectiveness) [Serial No. 3 = 1.0]: 24-hour value of the 2nd day; for relation between percentage change of the blood pressure (BP) and the applied dose: dose in μmole/kg; for Th. E. (therapeutic effectiveness) [Serial No. 3 = 1.0]: relative to hydralazine = 1.0. How it is done:
In order to determine the anti-hypertensive effect, the compounds or mixtures are administered once daily by means of an oesophageal sound in the stated doses on two consecutive days to, in each case, 8 rats (Kyoto strain) with genetically-caused hypertension. The blood pressure was measured in each case 6 and 24 hours after administration of the substance.
(§1) The measurement of the systolic blood pressure is effected with the aid of an inflatable cuff which is placed around the tail root and on which cuff there are arranged distally annularly 3 piezo-electric crystals (at a distance of 120°) for registering the pulse waves. The determination of the blood pressure is effected through inflation of the cuff and graphic recording of the pulse amplitude [analogously to H. Friebel and E. Vreden, Arch. exper. Path. u. Pharmakol., 232, 419 (1958)]. The animals were kept in an ambience of, and the experiments were carried out at from 22° to 24° C. and from 50 to 60 percent atmospheric humidity. In order to accustom the animals to the measuring process, a measurement was effected on the animals in each case 2 to 3 times daily for three days. For this purpose, as in the subsequent experiments, the rats were put into tunnel-shaped wire cages; one narrow side of the cages is slidable, the other has an opening for taking the tail through. In order to ensure a better blood flow through the tail artery during the measurement, the tails are irradiated for from 5 to 10 minutes with a red light lamp (150 watts) (distance: animal-lamp=50 cm). The air temperature immediately ambient to the tail is from 30° to 33° C. The body of the animals is covered and thus protected from direct irradiation.
(§2) Table I reproduces for the representatives of the compounds according to the invention the percentage lowering of the blood pressure after oral administration in the rat and the lethal effect after oral administration in the mouse.
% Change of blood pressure (BP) in genetically-hypertensive rats after
single daily application per os on two consecutive days (N = 8/dose)

Series [2] in a line: acute oral toxicity, LD50, mouse. Further details: species or system mouse (NMRI, female). The following applies: in vivo, per os, single administration, mice, N = 5/dose, 14 days observation. As to the method: The toxicity investigations were carried out on female NMRI mice (body weight from 22 to 26 g). The animals (5 animals per dose) receive food and water ad libitum. Different doses of the substances are administered orally. The duration of observation is 14 days. The LD50, i.e. the dose at which 50 percent of the animals die, is determined graphically from the dose effect curve.
as §2
and toxicity (per os; LD50) in mice (N = 5/dose)

The test system of series [3] is blood pressure of genetically-hypertensive rats. Briefly: lowering of blood pressure of genetically-hypertensive rats, oral, once daily on 10 consecutive days. The following applies: 6 h after application. Format: in vivo, rat (Kyoto strain). How it is done:
as §1
In Table III there is represented the lowering of the blood pressure of genetically-hypertensive rats in the case of oral application of 3-hydrazino-5,7-propano-5,6,7,8-tetrahydro-6-pyrido[4,3-c]pyridazine carboxylic acid ethyl ester fumarate. In each case 8 animals received the stated dose once daily on 10 consecutive days.
Lowering of the blood pressure of genetically-hypertensive rats
(in mm Hg) in the case of administration of different doses of No. 4
(in mg/kg rat), measured on 10 consecutive days (6 hours after
application in each case).
Doses: a = 1.25 mg/kg; b = 2.5 mg/kg; c = 5.0 mg/kg; d = 10.0 mg/kg.

Setting [4] is: 5 mg/kg per os on 2nd day (half of original dose).
The mark [5] stands for this setting: 5 mg/kg per os on 2nd day (half of original dose), 24 h.

In the case of `CCOC(=O)N1C2CCCC1c1cc(NN)nnc1C2` (stereo not shown) [3-hydrazino-5,7-propano-5,6,7,8-tetrahydro-6-pyrido[4,3-c]pyridazine carboxylic acid ethyl ester], the “anti-hypertensive effectiveness and duration of action, in words” value in series [1] (awake genetically-hypertensive rats, compared with hydralazine and known compounds) was “considerably higher anti-hypertensive effectiveness and longer duration of action than hydralazine”.

On to `CCOC(=O)N1CCc2nnc(NN)cc2C1` [Serial No. 1, 3-hydrazino-5,6,7,8-tetrahydro-6-pyrido[4,3-c]pyridazine carboxylic acid ethyl ester, reference compound], for which the “BP (% change), 2nd day, 6 h” value in series [1] (setting [4]) is given as -17.5%. Further, the “BP (% change), 1st day, 6 h” value in series [1] (10 mg/kg per os) is -24.5%. Further, in series [1] (10 mg/kg per os, 24 h), the “BP (% change), 1st day, 24 h” value is listed as -6.0%. Further, in series [1], the “relation between percentage change of the blood pressure (BP) and the applied dose” value (shortened to “relation between percentage change”) was 0.404; the “Th. E. (therapeutic effectiveness) [Serial No. 3 = 1.0]” value was determined as 8.3. For the same molecule, the “BP (% change) 2nd day, 24 h” value in series [1] (Table II, dose 21.05 μmole/kg) is listed as -8.5%. In addition, the 50% lethal dose (LD50) (usually the dose at which mortality reaches 50%) at 336 h in series [2] came to 340 mg/kg.

Regarding `CCOC(=O)N1CCc2nnc(NN)c(C)c2C1.Cl` [Serial No. 2, 3-hydrazino-4-methyl-5,6,7,8-tetrahydro-6-pyrido[4,3-c]pyridazine carboxylic acid ethyl ester hydrochloride, reference compound], the “BP (% change), 1st day, 6 h” value in series [1] (20 mg/kg per os) is given as -4.7%. The “BP (% change), 1st day, 24 h” value in series [1] (20 mg/kg per os, 24 h) is -1.0%. The “BP (% change), 2nd day, 6 h” value in series [1] (20 mg/kg per os, 2nd day) is on record as -4.7%. For the same molecule, the “BP (% change) 2nd day, 24 h” value is -3.7% in series [1] (20 mg/kg per os, 2nd day, 24 h) and -3.7% in series [1] (Table II, dose 79.6 μmole/kg). Moreover, the “relation between percentage change” value in series [1] amounted to 0.046. Further, the “Th. E. (therapeutic effectiveness) [Serial No. 3 = 1.0]” value in series [1] is 0.9.

As for `NNc1nncc2ccccc12` [Serial No. 3, 1-hydrazinophthalazine, reference compound], the “BP (% change), 1st day, 6 h” value in series [1] (20 mg/kg per os) is reported as -10.7%. Besides, the “BP (% change), 1st day, 24 h” value in series [1] (20 mg/kg per os, 24 h) is listed as -1.5%. The “BP (% change), 2nd day, 6 h” value in series [1] (20 mg/kg per os, 2nd day) was -11.8%. In addition, the “BP (% change) 2nd day, 24 h” value in series [1] (20 mg/kg per os, 2nd day, 24 h) is reported as -6.1%; in series [1] (Table II, dose 125.0 μmole/kg) it was -6.1%. In addition, in series [1], the “relation between percentage change” value was determined as 0.0488. Further, in series [1], the “Th. E. (therapeutic effectiveness) [Serial No. 3 = 1.0]” value turned out to be 1.0.

On to `CCOC(=O)N1C2CCCC1c1cc(NN)nnc1C2.O=C(O)/C=C/C(=O)O` (stereo not shown) [Serial No. 4, 3-hydrazino-5,7-propano-5,6,7,8-tetrahydro-6-pyrido[4,3-c]pyridazine carboxylic acid ethyl ester fumarate], for which the “Lowering of the blood pressure” value stood at 25.0 mm Hg in series [3] (day 1, a = 1.25 mg/kg oral); 35.0 mm Hg in series [3] (day 1, b = 2.5 mg/kg oral); 48.0 mm Hg in series [3] (day 1, c = 5.0 mg/kg oral); 58.0 mm Hg in series [3] (day 1, d = 10.0 mg/kg oral); 14.0 mm Hg in series [3] (day 2, a = 1.25 mg/kg oral); 59.0 mm Hg in series [3] (day 2, b = 2.5 mg/kg oral). Besides, the “Lowering of the blood pressure” value in series [3] (day 2, c = 5.0 mg/kg oral) is given as 67.0 mm Hg; in series [3] (day 2, d = 10.0 mg/kg oral) it was 77.5 mm Hg; in series [3] (day 3, a = 1.25 mg/kg oral) it was 20.0 mm Hg; in series [3] (day 3, b = 2.5 mg/kg oral), 44.0 mm Hg; in series [3] (day 3, c = 5.0 mg/kg oral), 53.0 mm Hg; in series [3] (day 3, d = 10.0 mg/kg oral) it was 66.0 mm Hg. Besides, the “Lowering of the blood pressure” value is listed as 21.0 mm Hg in series [3] (day 4, a = 1.25 mg/kg oral); 67.0 mm Hg in series [3] (day 4, b = 2.5 mg/kg oral); 72.0 mm Hg in series [3] (day 4, c = 5.0 mg/kg oral); 74.0 mm Hg in series [3] (day 4, d = 10.0 mg/kg oral); 27.0 mm Hg in series [3] (day 7, a = 1.25 mg/kg oral); 53.0 mm Hg in series [3] (day 7, b = 2.5 mg/kg oral). Moreover, the “Lowering of the blood pressure” value in series [3] (day 7, c = 5.0 mg/kg oral) was determined as 59.0 mm Hg; in series [3] (day 7, d = 10.0 mg/kg oral) it was 69.0 mm Hg; in series [3] (day 8, a = 1.25 mg/kg oral), 21.0 mm Hg; in series [3] (day 8, b = 2.5 mg/kg oral) it was 66.0 mm Hg; in series [3] (day 8, c = 5.0 mg/kg oral) it was 67.0 mm Hg; in series [3] (day 8, d = 10.0 mg/kg oral) it was 66.0 mm Hg. For the same molecule, the “Lowering of the blood pressure” value in series [3] (day 9, b = 2.5 mg/kg oral) is reported as 64.0 mm Hg; in series [3] (day 9, c = 5.0 mg/kg oral), 63.0 mm Hg; in series [3] (day 9, d = 10.0 mg/kg oral) it was 61.0 mm Hg; in series [3] (day 10, b = 2.5 mg/kg oral), 71.0 mm Hg; in series [3] (day 10, c = 5.0 mg/kg oral), 66.0 mm Hg; in series [3] (day 10, d = 10.0 mg/kg oral) it was 63.0 mm Hg. Besides, the “BP (% change), 1st day, 6 h” value in series [1] (2.5 mg/kg per os) is -9.0%. Also, the “BP (% change), 1st day, 24 h” value in series [1] (2.5 mg/kg per os, 24 h) was -11.8%. The “BP (% change), 2nd day, 6 h” value in series [1] (2.5 mg/kg per os, 2nd day) was -15.9%. Further, the “BP (% change) 2nd day, 24 h” value in series [1] (2.5 mg/kg per os, 2nd day, 24 h) is -17.1%; in series [1] (Table II, dose 9.0 μmole/kg) it was -17.1%. Also, the “relation between percentage change” value in series [1] is 1.90. For the same molecule, the “Th. E. (therapeutic effectiveness) [Serial No. 3 = 1.0]” value in series [1] is recorded as 38.9. The same molecule returned an LD50 at 336 h in series [2] of 400 mg/kg.

On to `CC(C)=NNc1cc2c(nn1)CC1CCCC2N1C(=O)c1ccccc1` (stereo not shown) [Serial No. 5, 6-benzoyl-3-isopropylidenehydrazino-5,7-propano-5,6,7,8-tetrahydropyrido[4,3-c]pyridazine], for which the “BP (% change), 2nd day, 6 h” value in series [1] (setting [4]) was -15.2%. For the same molecule, in series [1] (setting [5]), the “BP (% change) 2nd day, 24 h” value was -12.8%. Moreover, in series [1] (10 mg/kg per os), the “BP (% change), 1st day, 6 h” value is -20.1%. Moreover, the “BP (% change), 1st day, 24 h” value in series [1] (10 mg/kg per os, 24 h) was -4.4%. In addition, in series [1], the “relation between percentage change” value was determined as 0.87; the “Th. E. (therapeutic effectiveness) [Serial No. 3 = 1.0]” value came out at 17.8. Besides, the “BP (% change) 2nd day, 24 h” value in series [1] (Table II, dose 14.3 μmole/kg) is on record as -12.8%. In addition, the LD50 at 336 h in series [2] amounted to 510 mg/kg.

For `CCOC(=O)N1C2CCC1c1cc(NN=C(C)C)nnc1C2` (stereo not shown) [Serial No. 6, 3-isopropylidenehydrazino-5,7-ethano-5,6,7,8-tetrahydro-6-pyrido[4,3-c]-pyridazine carboxylic acid ethyl ester], the “BP (% change), 2nd day, 6 h” value in series [1] (setting [4]) was -21.5%. Moreover, the “BP (% change) 2nd day, 24 h” value in series [1] (setting [5]) was -23.1%. The “BP (% change), 1st day, 6 h” value in series [1] (10 mg/kg per os) is -23.1%. In addition, the “BP (% change), 1st day, 24 h” value in series [1] (10 mg/kg per os, 24 h) is reported as -20.5%. Besides, in series [1], the “relation between percentage change” value turned out to be 1.40; the “Th. E. (therapeutic effectiveness) [Serial No. 3 = 1.0]” value is 28.7. In addition, the “BP (% change) 2nd day, 24 h” value in series [1] (Table II, dose 16.5 μmole/kg) is -23.1%. In addition, the median lethal dose (LD50) at 336 h in series [2] stood at 300 mg/kg.
